Assay results from paper PMC3970552 (Neuropharmacology, 2013).

Assays:
α3G181Cβ2 nAChR [1] = biological target: T1, α3G181Cβ2 nAChR (Rattus norvegicus, UniProt P04757+P12390, G208C); test: Two-electrode voltage-clamp concentration-response in Xenopus oocytes; assay type: cell-based
wild type α3β2 nAChR = wild type α3β2 nAChR (Rattus norvegicus, UniProt P04757+P12390); details: ref Cesa et al., 2012, cited from earlier work
α3L158CK183Cβ2 nAChR [2] = biological target: T2, α3L158CK183Cβ2 nAChR (Rattus norvegicus, UniProt P04757+P12390, K210C/L185C); test: Two-electrode voltage-clamp concentration-response in Xenopus oocytes; assay type: cell-based
T2 sequence (P04757 26-499 L185C/K210C): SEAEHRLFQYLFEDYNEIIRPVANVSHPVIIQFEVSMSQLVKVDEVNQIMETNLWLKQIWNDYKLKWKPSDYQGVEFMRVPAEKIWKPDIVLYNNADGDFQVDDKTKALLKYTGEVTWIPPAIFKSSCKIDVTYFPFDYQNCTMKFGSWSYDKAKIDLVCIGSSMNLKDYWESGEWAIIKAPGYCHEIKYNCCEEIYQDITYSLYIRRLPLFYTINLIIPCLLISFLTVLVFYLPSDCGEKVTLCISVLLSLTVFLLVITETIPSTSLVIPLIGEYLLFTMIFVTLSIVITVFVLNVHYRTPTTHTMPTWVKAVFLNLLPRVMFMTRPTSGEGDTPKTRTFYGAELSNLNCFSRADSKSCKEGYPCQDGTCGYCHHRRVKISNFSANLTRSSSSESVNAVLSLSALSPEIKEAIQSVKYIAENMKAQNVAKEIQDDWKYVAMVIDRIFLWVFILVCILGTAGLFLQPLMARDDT
T2 sequence (P12390 25-500): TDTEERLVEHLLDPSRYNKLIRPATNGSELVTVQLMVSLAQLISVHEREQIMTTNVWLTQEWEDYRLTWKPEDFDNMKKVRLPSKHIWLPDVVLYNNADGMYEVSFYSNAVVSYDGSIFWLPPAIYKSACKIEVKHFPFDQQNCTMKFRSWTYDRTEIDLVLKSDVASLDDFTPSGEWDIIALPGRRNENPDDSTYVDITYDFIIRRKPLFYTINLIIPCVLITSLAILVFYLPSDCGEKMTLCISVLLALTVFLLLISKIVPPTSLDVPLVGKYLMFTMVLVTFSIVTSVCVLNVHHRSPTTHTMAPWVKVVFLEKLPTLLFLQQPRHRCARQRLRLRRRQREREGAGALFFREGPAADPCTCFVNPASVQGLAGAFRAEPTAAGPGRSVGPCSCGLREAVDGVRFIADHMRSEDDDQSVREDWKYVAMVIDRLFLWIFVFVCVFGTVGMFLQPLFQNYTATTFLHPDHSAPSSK

α3L158CA179Cβ2 nAChR [3] = biological target: T3, α3L158CA179Cβ2 nAChR (Rattus norvegicus, UniProt P04757+P12390, A206C/L185C); test: as above; assay type: cell-based; details: naïve oocytes
T3 sequence (P04757 26-499 L185C/A206C): as the sequence (P04757 26-499 L185C/K210C) above, with A181C, C185K counted along it
T3 sequence (P12390 25-500, stated change not applied): as the sequence (P12390 25-500) above

α3L158CG181Cβ2 nAChR [4] = biological target: T4, α3L158CG181Cβ2 nAChR (Rattus norvegicus, UniProt P04757+P12390, G208C/L185C); test: as above; assay type: cell-based
T4 sequence (P04757 26-499 L185C/G208C): as the sequence (P04757 26-499 L185C/K210C) above, with G183C, C185K counted along it
T4 sequence (P12390 25-500): as the sequence (P12390 25-500) above

α3L158Cβ2 nAChR [5] = biological target: T5, α3L158Cβ2 nAChR (Rattus norvegicus, UniProt P04757+P12390, L185C); test: as above; assay type: cell-based
T5 sequence (P04757 26-499 L185C): as the sequence (P04757 26-499 L185C/K210C) above, with C185K counted along it
T5 sequence (P12390 25-500): as the sequence (P12390 25-500) above

α3K183Cβ2 nAChR = α3K183Cβ2 nAChR (Rattus norvegicus, UniProt P04757+P12390, K210C); test: as above; assay type: cell-based
α3K183Cβ2 nAChR, sequence (P04757 26-499 K210C): as the sequence (P04757 26-499 L185C/K210C) above, with C160L counted along it
α3K183Cβ2 nAChR, sequence (P12390 25-500): as the sequence (P12390 25-500) above

α3A179Cβ2 nAChR = α3A179Cβ2 nAChR (Rattus norvegicus, UniProt P04757+P12390, A179C/A206C); test: as above; assay type: cell-based
α3A179Cβ2 nAChR, sequence (P04757 26-499 A179C/A206C): as the sequence (P04757 26-499 L185C/K210C) above, with A154C, C160L, A181C, C185K counted along it
α3A179Cβ2 nAChR, sequence (P12390 25-500, stated change not applied): as the sequence (P12390 25-500) above

α3L158CG181Cβ2 nAChR [6] = biological target: T4, α3L158CG181Cβ2 nAChR; test: Oxidation/reduction treatment; assay type: cell-based; details: for ACh/Mor-evoked current, % of the control: after H2O2 + ACh + Mor oxidation
α3L158Cβ2 nAChR [7] = biological target: T5, α3L158Cβ2 nAChR; test: Oxidation/reduction treatment, evoked currents; assay type: cell-based; details: ACh + Mor currents
α3L158CK183Cβ2 nAChR [8] = biological target: T2, α3L158CK183Cβ2 nAChR; test: Oxidation/reduction treatment; assay type: cell-based; details: for IDTT/Icontrol: DTT treatment; for decrease of ACh-evoked currents: 125 μM ACh challenge
α3G181Cβ2 nAChR [9] = biological target: T1, α3G181Cβ2 nAChR; test: Oxidation/reduction treatment, evoked currents; assay type: cell-based; details: ACh + Mor currents
α3L158CA179Cβ2 nAChR [10] = biological target: T3, α3L158CA179Cβ2 nAChR; test: Oxidation/reduction treatment; assay type: cell-based; details: for IDTT/Icontrol: 40 μM DTT; for ITCEP/Icontrol: 40 μM TCEP
α3L158CG181Cβ2 nAChR [11] = biological target: T4, α3L158CG181Cβ2 nAChR; test: MTS-dansyl probing of free sulfhydryls, evoked currents; assay type: cell-based
α3L158Cβ2 nAChR [12] = biological target: T5, α3L158Cβ2 nAChR; test: MTS-dansyl treatment, evoked currents; assay type: cell-based; details: 5 μM ACh currents
α3G181Cβ2 nAChR [13] = biological target: T1, α3G181Cβ2 nAChR; test: MTS-dansyl treatment, evoked currents; assay type: cell-based; details: 100 μM ACh currents
[14] = ACh alone, Hill fit, naïve oocytes
[15] = DTT after treatment with H2O2 only
[16] = ACh + 10 μM Mor, asymptote at saturating ACh, normalized to highest ACh alone
[17] = Mor alone, relative to internal ACh control
[18] = ACh titration + 10 μM Mor, naïve oocytes

T1 sequence (P04757 26-499 G208C): as the sequence (P04757 26-499 L185C/K210C) above, with C160L, G183C, C185K counted along it
T1 sequence (P12390 25-500): as the sequence (P12390 25-500) above
wild type α3β2 nAChR, sequence (P04757 26-499): as the sequence (P04757 26-499 L185C/K210C) above, with C160L, C185K counted along it
wild type α3β2 nAChR, sequence (P12390 25-500): as the sequence (P12390 25-500) above

## CC(=O)OCC[N+](C)(C)C [ACh, acetylcholine]
α3G181Cβ2 nAChR [1]; ACh alone, Hill fit
  ACh Response nH: 1.10 ± 0.11 [5]
Wild type α3β2 nAChR; ACh alone, Hill fit
  ACh Response nH: 0.75 ± 0.07
α3L158CK183Cβ2 nAChR [2]; [14]
  ACh Response nH: 1.11 ± 0.14 [6]
α3L158CA179Cβ2 nAChR [3]; ACh alone, Hill fit
  ACh Response nH: 1.19 ± 0.20 [7]
α3L158CG181Cβ2 nAChR [4]; [14]
  ACh Response nH: 0.93 ± 0.23 [5]
α3L158Cβ2 nAChR [5]; ACh alone, Hill fit
  ACh Response nH: 0.80 ± 0.11 [6] ^b
α3K183Cβ2 nAChR; ACh alone, Hill fit
  ACh Response nH: 2.43 ± 0.78 [9]
α3A179Cβ2 nAChR; ACh alone, Hill fit
  ACh Response nH: 0.79 ± 0.08 [8]

## O[C@@H](CS)[C@@H](O)CS [DTT]
α3L158CG181Cβ2 nAChR [6]; 40 μM DTT 5 min on naive oocytes, prior to H2O2, challenge 100 μM ACh
  increase of ACh-evoked current: 25%
α3L158Cβ2 nAChR [7]
  IDTT/IH2O2: 0.96 ± 0.17
α3L158CK183Cβ2 nAChR [8]; DTT post-oxidation
  IDTT/Icontrol (ACh + Mor): 1.02 ± 0.02
  IDTT/Icontrol (ACh): 0.97 ± 0.03
α3L158CK183Cβ2 nAChR [8]; 125 μM ACh
  IDTT/Icontrol: 1.10 ± 0.01
α3L158CK183Cβ2 nAChR [8]; 125 μM ACh + 10 μM Mor
  IDTT/Icontrol: 1.19 ± 0.03
α3G181Cβ2 nAChR [9]
  IDTT/IH2O2: 0.96 ± 0.06
α3L158CA179Cβ2 nAChR [10]; 24 μM ACh
  IDTT/Icontrol: 1.30 ± 0.08
α3L158CA179Cβ2 nAChR [10]; 24 μM ACh + 10 μM Mor
  IDTT/Icontrol: 1.26 ± 0.07
α3L158CA179Cβ2 nAChR [10]; [15]
  IDTT/Icontrol (ACh + Mor): 1.06 ± 0.06
  IDTT/Icontrol (ACh): 0.99 ± 0.04

## OO [H2O2]
α3L158CG181Cβ2 nAChR [6]; 4.4 mM H2O2 + 100 μM ACh + 10 μM Mor, 5 min, challenge 100 μM ACh
  decrease of ACh-evoked current: 26%
α3L158CG181Cβ2 nAChR [6]; 4.4 mM H2O2 + 100 μM ACh + 10 μM Mor, 5 min, challenge 100 μM ACh + 10 μM Mor
  decrease of ACh + Mor-evoked current: 26%
α3L158CG181Cβ2 nAChR [6]; 4.4 mM H2O2 alone, 5 min, challenge 100 μM ACh
  effect on ACh-evoked currents: no apparent effect
α3L158CG181Cβ2 nAChR [6]; 4.4 mM H2O2 alone, 5 min, challenge 100 μM ACh + 10 μM Mor
  decrease of currents evoked by ACh and Mor: 24%
α3L158CG181Cβ2 nAChR [6]; H2O2 + ACh + Mor oxidation after DTT, challenge 100 μM ACh
  decrease of ACh-evoked current relative to post-reduction value: 52%
α3L158CG181Cβ2 nAChR [6]; H2O2 + ACh + Mor oxidation after DTT, challenge 100 μM ACh + 10 μM Mor
  decrease of ACh/Mor-evoked current relative to post-reduction value: 46%
α3L158CG181Cβ2 nAChR [6]; H2O2 + ACh + Mor treatment, 5 μM ACh currents (MTS probing experiments)
  Ipost-oxidation/Icontrol: 0.66 ± 0.05
α3L158CG181Cβ2 nAChR [6]; challenges every 100 sec, first response
  ACh/Mor-evoked current, % of the control: about 60%
α3L158CG181Cβ2 nAChR [6]; five successive challenges in 500 sec
  ACh/Mor-evoked current, % of the control: ≤ 80%
α3L158Cβ2 nAChR [7]
  IH2O2/Icontrol: 0.78 ± 0.08
α3L158CK183Cβ2 nAChR [8]; H2O2 + ACh + Mor treatment
  decrease of ACh-evoked currents: 28%
α3L158CK183Cβ2 nAChR [8]; H2O2 alone treatment
  decrease of ACh-evoked currents: 13%
α3G181Cβ2 nAChR [9]
  IH2O2/Icontrol: 0.94 ± 0.03
α3L158CA179Cβ2 nAChR [10]; two oxidation conditions (H2O2 alone; H2O2 + ACh + Mor), two challenges (24 μM ACh; 24 μM ACh + 10 μM Mor)
  decrease of evoked currents: 25–28%

## CN(C)c1cccc2c(S(=O)(=O)NCCSS(C)(=O)=O)cccc12 [MTS-dansyl, dansylamidoethyl methanesthiosulfonate]
α3L158CG181Cβ2 nAChR [11]; after H2O2 + ACh + Mor oxidation, 5 μM ACh + 10 μM Mor
  decrease of ACh/Mor-evoked currents by MTS: 8%
α3L158CG181Cβ2 nAChR [11]; after H2O2 alone treatment, 5 μM ACh
  decrease of ACh current after MTS: 27%
α3L158CG181Cβ2 nAChR [11]; after H2O2 alone treatment, 5 μM ACh + 10 μM Mor
  decrease of ACh + Mor current after MTS: 21%
α3L158CG181Cβ2 nAChR [11]; after standard oxidation then 200–300 sec wash, 5 μM ACh + 10 μM Mor
  decrease of ACh/Mor-evoked currents by MTS: 14%
α3L158CG181Cβ2 nAChR [11]; naive oocytes, 50 μM MTS-dansyl 2 min, 5 μM ACh
  decrease of ACh-evoked current after MTS-dansyl: 33%
α3L158CG181Cβ2 nAChR [11]; naive oocytes, 50 μM MTS-dansyl 2 min, 5 μM ACh + 10 μM Mor
  decrease of ACh/Mor-evoked current after MTS-dansyl: 14%
α3L158Cβ2 nAChR [12]
  decrease of ACh currents after MTS-dansyl: 44 ± 2%
α3G181Cβ2 nAChR [13]
  decrease of ACh currents after MTS-dansyl: 21 ± 4%

## Cc1ccsc1C=CC1=NCCCN1C.O=C(O)C(O)C(O)C(=O)O [Mor, 1,4,5,6-tetrahydro-1-methyl-2-(2-[3-methyl-2-thienyl]ethenyl)pyrimidine, tartrate salt]
α3G181Cβ2 nAChR [1]
  EC50: 41 ± 26 µM
α3G181Cβ2 nAChR [1]; [16]
  Mor Modulation Response Emax: 2.3 ± 0.1
α3G181Cβ2 nAChR [1]; ACh titration + 10 μM Mor
  Mor Modulation Response nH: 1.08 ± 0.12
α3G181Cβ2 nAChR [1]; [17]
  Emax, activation by Mor alone: 0.32 ± 0.05
Wild type α3β2 nAChR; ACh titration + 10 μM Mor
  Mor Modulation Response nH: 1.37 ± 0.80
α3L158CK183Cβ2 nAChR [2]; ACh + 10 μM Mor vs ACh alone
  Mor potentiation: effectively no potentiation
α3L158CK183Cβ2 nAChR [2]; [18]
  Mor Modulation Response nH: 0.95 ± 0.16
α3L158CA179Cβ2 nAChR [3]; ACh titration + 10 μM Mor
  Mor Modulation Response nH: 1.70 ± 0.50
α3L158CG181Cβ2 nAChR [4]
  EC50: 28 ± 10 µM
α3L158CG181Cβ2 nAChR [4]; [18]
  Mor Modulation Response nH: 1.18 ± 0.25
α3L158CG181Cβ2 nAChR [4]; [17]
  Emax, activation by Mor alone: 0.074 ± 0.009
α3L158Cβ2 nAChR [5]
  EC50: 12 ± 7 µM
α3L158Cβ2 nAChR [5]; [16]
  Mor Modulation Response Emax: 1.6 ± 0.1
α3L158Cβ2 nAChR [5]; ACh titration + 10 μM Mor
  Mor Modulation Response nH: 1.47 ± 0.39
α3L158Cβ2 nAChR [5]; [17]
  Emax, activation by Mor alone: 0.021 ± 0.002
α3K183Cβ2 nAChR; ACh + 10 μM Mor vs ACh alone
  Mor potentiation: negligible Mor potentiation
α3K183Cβ2 nAChR; [16]
  Mor Modulation Response Emax: 0.97 ± 0.02
α3K183Cβ2 nAChR; ACh titration + 10 μM Mor
  Mor Modulation Response nH: 1.61 ± 0.22
α3A179Cβ2 nAChR; [16]
  Mor Modulation Response Emax: 1.6 ± 0.1
α3A179Cβ2 nAChR; ACh titration + 10 μM Mor
  Mor Modulation Response nH: 1.79 ± 0.75

## O=C(O)CCP(CCC(=O)O)CCC(=O)O [TCEP, tris(2-carboxyethyl)phosphine]
α3L158CA179Cβ2 nAChR [10]; ACh
  ITCEP/Icontrol: 1.21 ± 0.04
α3L158CA179Cβ2 nAChR [10]; ACh + Mor
  ITCEP/Icontrol: 1.24 ± 0.05
